Four compounds from patent US7129257B1, “Pyrazolo[3,4- e]benzoxazoles for the treatment of glaucoma” (Alcon, Inc., priority 2003, dated 2006) can be followed below.

Series [1] addresses T1, 5-HT2A receptor (Rattus norvegicus, UniProt P14842). Nature of the series: 5-HT2 Receptor Binding Assay ([125I]DOI competition). Particulars: [125I]DOI binding, post mortem rat or human cerebral cortex homogenates. Here is the method: The procedures described herein in Method 1 can be used to confirm a compound's 5-HT2 binding affinity.
5-HT2 Receptor Binding Assay
Aliquots of post mortem rat or human cerebral cortex homogenates (400 μL) dispersed in 50 mM TrisHCl buffer (pH 7.4) are incubated with [^125I]DOI (80 pM final) in the absence or presence of methiothepin (10 μM final) to define total and non-specific binding, respectively, in a total volume of 0.5 mL. The assay mixture is incubated for 1 hour at 23° C. in polypropylene tubes and the assays terminated by rapid vacuum filtration over Whatman GF/B glass fiber filters previously soaked in 0.3% polyethyleneimine using ice-cold buffer. Test compounds (at different concentrations) are substituted for methiothepin. Filter-bound radioactivity is determined by scintillation spectrometry on a beta counter. The data are analyzed using a non-linear, iterative curve-fitting computer program [Trends Pharmacol. Sci., 16, 413 (1995)] to determine the compound affinity parameter. The concentration of the compound needed to inhibit the [^125I]DOI binding by 50% of the maximum is termed the IC50 or Ki value.

Series [2] addresses T1, 5-HT2A receptor. Nature of the series: 5-HT2 Functional Assay: [Ca2+]i Mobilization (FLIPR). Format: cell-based. Set-up: endogenous in cells; host or cells: A7r5 rat vascular smooth muscle cells. Particulars: for EC50: [Ca2+]i mobilization, rat vascular smooth muscle cells A7r5; for Emax: percentage of maximum 5-HT-induced response, A7r5 cells. On the procedure:
5-HT2 Functional Assay: [Ca^2+]i; Mobilization
The receptor-mediated mobilization on intracellular calcium ([Ca^2+]i) was studied using the Fluorescence Imaging Plate Reader (FLIPR) instrument. Rat vascular smooth muscle cells, A7r5, were grown in a normal media of DMEM/10% FBS and 10 μg/mL gentamycin. Confluent cell monolayers were trypsinized, pelleted, and re-suspended in normal media. Cells were seeded in a 50 μL volume at a density of 20,000 cells/well in a black wall, 96-well tissue culture plate and grown for 2 days.
On the day of the experiment, one vial of FLIPR Calcium Assay Kit dye was re-suspended in 50 mL of a FLIPR buffer consisting of Hank's Balanced Salt Solution (HBSS), 20 mM HEPES, and 2.5 mM probenecid, pH 7.4. Cells were loaded with the calcium-sensitive dye by addition of an equal volume (50 μL) to each well of the 96-well plate and incubated with dye for 1 h at 23° C.
Typically, test compounds were stored at 25 μM in 50% DMSO/50% Ethanol solvent. Compounds were diluted 1:50 in 20% DMSO/20% Ethanol. For “hit” screening, compounds were further diluted 1:10 in FLIPR buffer and tested at a final concentration of 10 μM. For dose-response experiments, compounds were diluted 1:50 in FLIPR buffer and serially diluted 1:10 to give a 5- or 8-point dose-response curve.
The compound plate and cell plate were placed in the FLIPR instrument. At the beginning of an experimental run, a signal test was performed to check the basal fluorescence signal from the dye-loaded cells and the uniformity of the signal across the plate. The basal fluorescence was adjusted between 8000–12000 counts by modifying the exposure time, the camera F-stop, or the laser power. Instrument settings for a typical assay were the following: laser power 0.3–0.6 W, camera F-stop F/2, and exposure time 0.4 sec. An aliquot (25 μL) of the test compound was added to the existing 100 μL dye-loaded cells at a dispensing speed of 50 μL/sec. Fluorescence data were collected in real-time at 1.0 sec intervals for the first 60 secs and at 6.0 sec intervals for an additional 120 secs. Responses were measured as peak fluorescence intensity minus basal and where appropriate were expressed as a percentage of a maximum 5-HT-induced response. When the compounds were tested as antagonists against 10 μM 5-HT, they were incubated with the cells for 15 minutes prior to the addition of 5-HT.

T1 sequence (P14842 whole entry): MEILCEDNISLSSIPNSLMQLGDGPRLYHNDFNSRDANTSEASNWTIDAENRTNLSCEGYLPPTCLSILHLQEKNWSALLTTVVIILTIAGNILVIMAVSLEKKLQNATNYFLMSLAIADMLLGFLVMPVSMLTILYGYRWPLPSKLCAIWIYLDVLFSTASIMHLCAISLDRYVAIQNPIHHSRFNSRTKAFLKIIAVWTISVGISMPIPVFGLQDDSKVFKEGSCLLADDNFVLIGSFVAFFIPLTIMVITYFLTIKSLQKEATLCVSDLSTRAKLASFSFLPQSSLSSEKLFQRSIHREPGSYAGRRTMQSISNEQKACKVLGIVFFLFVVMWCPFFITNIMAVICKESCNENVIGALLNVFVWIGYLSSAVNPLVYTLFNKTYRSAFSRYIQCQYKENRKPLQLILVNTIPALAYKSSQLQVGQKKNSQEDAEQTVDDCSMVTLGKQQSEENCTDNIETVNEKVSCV

Regarding `COc1nc2c(ccc3cnn(C[C@H](C)N)c32)o1` [Example 1, (S)-2-(7-Methoxy-1H-pyrazolo[3,4-e]benzoxazol-1-yl)-1-methylethylamine], at 5-HT2A receptor [1], the IC50 amounted to 8 nM. On 5-HT2A receptor [2], this compound showed an EC50 of 352 nM and an Emax of 72%.
Turning to `COCc1nc2c(ccc3cnn(C[C@H](C)N)c32)o1` [Example 2, (S)-2-[7-(Methoxymethyl)-1H-pyrazolo[3,4-e]benzoxazol-1-yl]-1-methylethylamine], the melting point fell in the range of 40 to 43 °C. Also, at 5-HT2A receptor [1], the IC50 turned out to be 6 nM. Also, on 5-HT2A receptor [2], the EC50 came out at 174 nM and the Emax was 88%.
As to `C[C@H](N)Cn1ncc2ccc3oc(C(N)=O)nc3c21` [Example 3, 1-[(S)-2-Aminopropyl]-1H-pyrazolo[3,4-e]benzoxazole-7-carboxylic acid amide], the melting point lay within 60 to 65 °C. At 5-HT2A receptor [2], this compound yielded an EC50 of 445 nM and an Emax of 72%.
`CNC(=O)c1nc2c(ccc3cnn(C[C@H](C)N)c32)o1` [Example 4, 1-[(S)-2-Aminopropyl]-1H-pyrazolo[3,4-e]benzoxazole-7-carboxylic acid methylamide] displayed an IC50 at 5-HT2A receptor [1] of 19 nM. At 5-HT2A receptor [2], this compound yielded an EC50 of 907 nM and an Emax of 77%.

The IC50 is the point on the concentration scale where inhibition reaches its midpoint. A low value points to greater potency. What is called EC50 is the concentration giving half of the maximal effect. By Emax is commonly meant the size of the effect at its maximum, as opposed to the concentration needed. A word on the melting point: it is the temperature of the solid-liquid transition.
